This is an account of results in PMC12606464, “Investigating NFE2L1 activators for targeted protein aggregate clearance: a follow-up study” (RSC Medicinal Chemistry, 2025).

Series [1] relates to ubiquitin-proteasome system. Description: Ub-G76V-GFP reporter degradation in U2OS cells. It counts as cell-based. The text has this: (§1) We next examined whether the selected RUN compounds activate the NFE2L1 pathway in a stress-independent manner, while preserving normal ubiquitin-dependent proteasomal degradation. This distinction is crucial, as the therapeutic benefit of NFE2L1 activation lies in its ability to alleviate proteotoxic stress and target disease-related proteins for degradation without compromising normal proteostasis. To assess this, U2OS cells stably expressing the short-lived fluorescent reporter Ub-G76V-GFP were treated with various concentrations of RUN compounds. […] We also examined whether compound-induced activation of NFE2L1 could be attributed to the generation of reactive oxygen species (ROS). To test this, the 3×PSMA4-ARE-LUC reporter assay was performed in the presence or absence of the antioxidant N-acetyl-L-cysteine (NAC). A decrease in reporter activity upon NAC treatment would indicate pathway activation through oxidative stress.
RUN compound (5 µM) for 8 hours. Fluorescence intensity was normalized to cell viability (measured by the alamarBlue assay) and compared to vehicle control (DMSO). Unlike the […]
as means ± SD from three independent experiments (n = 3). Statistical analysis was performed using a multiple unpaired t-test with Welch’s correction, with adjustment for multiple comparisons by the Holm–Šídák method (α = 0.05). ****p<0.0001. Detailed results of the analysis are shown in Supplementary Table S14. […]
2.4 Monitoring protein degradation using UbG76V-GFP reporter cells
U2OS cells stably expressing the Ub-G76V-GFP reporter were seeded into 96-well plates at and cultured overnight under standard conditions. On the following day, cells were treated with the indicated test compounds or DMSO vehicle control for 8 hours. After treatment, GFP fluorescence intensity was measured, providing a readout of proteasome-dependent degradation of the Ub-G76V-GFP substrate. Cell viability was then assessed in the same wells using the alamarBlue assay according to the manufacturer’s protocol. Viability values were used for normalization of fluorescence data to account for differences in cell number. Accumulation of GFP signal relative to DMSO-treated controls was interpreted as reduced degradation of UPS substrates, indicating potential effects of the compounds on the natural protein turnover.
Statistical comparison of RUN compounds with ASC-JM17 was performed using a multiple unpaired t-test with Welch’s correction, with adjustment for multiple comparisons by the Holm–Šídák method (α = 0.05) in GraphPad Prism (v 10.6.1). […]
RNA was extracted using […]
the RNeasy® Plus Micro Kit according to the manufacturer’s instructions. Complementary DNA (cDNA) was synthesized from RNA using either t he TATAA GrandScript cDNA Supermix (TATAA Biocenter) or the QuantiTect® Reverse Transcription Kit (Qiagen), following the respective protocols. Quantitative RT -PCR was performed on a LightCycler® 480 instrument (Roche Life Science) using the TATAA SYBR® Gr andMaster® Mix (TATAA […]
Biocenter). Gene expression levels were normalized to RPLP0, and relative expression was calculated using the ΔΔCt method. Data were expressed as fold change relative to the corresponding DMSO control. Statistical analysis of changes in gene expression was performed w ith a ratio paired t-test corrected for multiple comparisons using Holm-Šídák's method (α = 0.05) in GraphPad Prism (v 10.6.1).
Table S1. Sequences of primer pairs used in the qRT -PCR analysis of gene expression.

The test system of another series is HEK293 cells. Briefly: alamarBlue cytotoxicity assessment in HEK293 cells. The class given is cell-based, human. The settings on record: HEK293, alamarBlue, 16 h; concentration not given. As for the experimental part:
Figure S2: Concentration-dependent cytotoxicity assessment of RUN compounds.
HEK293 cells were treated for 16 hours with increasing concentrations of RUN compounds (1.25 µM; 2.5 µM; 5; 7.5 and 10 µM) or DMSO (negative control). Cell viability was determined using the alamarBlue assay following the protocol of Riss.(1) Data are presented as means ± SD from three independent experiments (n = 3). Statistical analysis was done using repeated measures one-way ANOVA with Geisser–Greenhouse correction, followed by Dunnett’s multiple comparisons test. *p<0.05. Detailed results of the analysis are shown in […]
(1 picture or pasted object on this page, not shown here)
(§2) 2 Biology Experimental Procedures
(§3) Safety statement: No unexpected or unusually high safety hazards were encountered. […]
(§4) Cell lines were sourced from the ATCC (USA) and/or ECACC (UK), namely HCT116 (human colorectal carcinoma), ATCC CCL-247 (RRID:CVCL_0291), HEK-293 (human embryonic kidney), ATCC CRL-1573 (RRID:CVCL_0045), SH-SY5Y (human neuroblastoma), ATCC CRL-2266 (RRID:CVCL_0019). The characteristics of DDI2 knockout cells derived from HCT116 cells have been described previously (Sedlacek et al., 2025). All cell lines were tested for mycoplasma contamination. Most of the cell lines were cultured in Dulbecco's Modified Eagle Medium (DMEM) enriched with 10% fetal bovine serum (FBS) and 2 mM L-glutamine, under standard conditions of 37 °C with 5% CO₂. DNA transfection was performed with Lipofectamine 2000, following the manufacturer's instructions. Transgenic cells were then selected with either G418 (400 µg/mL) or hygromycin B (450 µg/mL), based on the selection marker encoded by the plasmid used. […]

Series [2] relates to NFE2L1 pathway. Description: 3×PSMA4-ARE-LUC reporter with or without N-acetyl-L-cysteine (NAC). It counts as cell-based, human. The settings on record: HEK293, 5 μM, 16 h.
From the text: as §1, with “stress. […]” for “stress.”
To determine whether RUN compounds activate the NFE2L1 pathway via reactive oxygen species (ROS) generation or through Keap1-NRF2 pathway crosstalk, we used the 3xPSMA4-ARE-LUC dual reporter assay in HEK293 cells. […] A reduction in luminescence signal upon NAC co-treatment would indicate that the compound activates the reporter via ROS-mediated mechanism or Keap1-NRF2-dependent oxidative/electrophilic stress. […]

Series [3] concerns NFE2L1 pathway. Description: 3×PSMA4-ARE-LUC dual luciferase reporter assay in HEK293 cells. It counts as cell-based, human. Conditions: Homo sapiens; 5 μM, 16 h, HEK293, luminescence relative to DMSO-treated cells; read-out: NFE2L1 activation [5 μM].
From the text: In our previous work,[43] we developed a library of NFE2L1 stimulators using a cell-based luciferase reporter assay. This system was based on three tandem copies of the antioxidant response element (ARE) derived from the NFE2L1 target gene proteasome subunit alpha type-4 (3xPSMA4, PSMA4-ARE-LUC). It was designed to detect the proteasome “bounce-back” response induced by proteasome inhibitors such as MG132 or bortezomib.[22,43,45,46] The reporter assay was adapted to a 384-well format and used to evaluate a new set of RUN compounds designed around the structural framework of the RUN-47 activator. We focused on identifying compounds that increased the 3×PSMA4-ARE-LUC signal (Fig. 1A), while simultaneously assessing cytotoxicity (see the SI, Fig. S2). […] In contrast, thiourea- and urea-containing derivatives generally produced only weak to intermediate responses, rarely exceeding a fold change of 7.
(§5) Fig. 1 (A) Targeted library screening of RUN compounds using the 3×PSMA4-ARE-LUC dual reporter assay in HEK293 cells. Cells were exposed to RUN compounds (5 μM) for 16 hours, and luciferase activity was measured. Data are presented as the mean ± SD from three independent experiments (n = 3). Results are shown as a fold change in luminescence relative to DMSO-treated cells. Selected hit compounds are highlighted in distinct colours. (B) RUN-89 specifically activates the NFE2L1 pathway. The DDI2 knockout (KO) and parental (WT) HCT116 cells were transfected with the 3×PSMA4-ARE-LUC reporter and treated with 0.5 μM bortezomib (BTZ) and 5 μM RUN-89 for 16 hours. Data are presented as the Geomean ± GeoSD of three independent experiments (n = 3). Statistical analysis was performed on log2-transformed values using two-way repeated-measures ANOVA followed by Šídak's multiple comparison test. (C) RUN-89 selectively triggers downstream signaling events associated with NFE2L1 gene expression. HEK293 cells were transfected with lipid nanoparticles (LNPs) carrying siRNAs targeting NFE2L1 or NFE2L2. LNPs formulated with non-targeting siRNA served as a negative control. Following 24 hours of incubation, cells were treated with 7.5 μM RUN-89 or DMSO (vehicle) for an additional 16 hours. Expression of the proteasomal subunit gene PSMC4 was then quantified by RT-qPCR. Data are shown as the Geomean ± GeoSD from three independent biological replicates (n = 3). Log2-transformed data were analyzed using two-way repeated-measures ANOVA with the Geisser–Greenhouse correction, followed by Tukey's multiple comparison test with individual variances computed for each comparison. Additional results for NFE2L1, NFE2L2, PSMB7, and PSMD12 are presented in SI Fig. S10.
Figure S1: Concentration–response of luciferase cell-based assay (PSMA4-ARE-luc2P reporter) on treatment with RUN-81, RUN-89, and RUN-94. Concentration is plotted on the X-axis. Dose–response relationships were analyzed using a four-parameter logistic curve (4PL), or a bell-shaped dose-response curve, both with weighting 1/Y^2. Dotted lines represent 95% confidence bands. Calculated EC₅₀ values, curve parameters, and asymmetrical confidence intervals are summarized in the accompanying table . Data are presented as mean ± SD from four independent experiments (n=4).
as §2, §3
Most of the cell lines were cultured in Dulbecco's Modified Eagle Medium (DMEM) enriched with 10% fetal bovine serum (FBS) and 2 mM L-glutamine, under standard conditions of 37 °C with 5% CO₂. DNA transfection was performed with Lipofectamine 2000, following the manufacturer's instructions. Transgenic cells were then selected with either G418 (400 µg/mL) or hygromycin B (450 µg/mL), based on the selection marker encoded by the plasmid used. Cell viability was evaluated using the […]
In general terms: Reporter assays use an easily measured gene product as a stand-in for the process of interest.

In series [4] the test system is NFE2L1 pathway (DDI2-dependent) in HCT116 cells. Description: 3×PSMA4-ARE-LUC reporter in HCT116 WT and DDI2 knockout cells. The class given is cell-based, human. As for the experimental part: as §5
To clarify whether the representative compound RUN-89 activates the NFE2L1-specific luciferase reporter independently of the KEAP1–NFE2L2 pathway, we used the 3×PSMA4-ARE-LUC dual reporter in previously published DDI2 knockout HCT116 cells (from ATCC CCL-247 (RRID:CVCL_0291)), in which the protease essential for NFE2L1 activation is disrupted. […] These findings indicate that RUN-89 activates the reporter construct through NFE2L1.
2 Biology Experimental Procedures […]
as §4, with “instructions.” for “instructions. Transgenic cells were then selected with either G418 (400 µg/mL) or hygromycin B (450 µg/mL), based on the selection marker encoded by the plasmid used.”
alamarBlue assay according to the standard protocol.(1)
2.3 Dual luciferase phenotypic assays
HEK293-derived cells stably expressing the 3×PSMA4-ARE-Luc reporter were maintained at low to mid passage numbers before use. For each experiment, cells were transiently transfected with the pRL-TK Renilla luciferase plasmid using Lipofectamine 2000.
Approximately 5–6 hours post-transfection, cells were seeded into plate format according to the experiment (384-well plate mostly). On the following day, cells were treated with the indicated test compounds or DMSO vehicle control for 16 hours (unless otherwise specified).
After treatment, cells were lysed and luciferase activities were quantified using the Dual-Luciferase® Reporter Assay System according to the manufacturer’s instructions and established protocols.(2, 3) For assays using the CMV-XBP-Gluc construct encoding Gaussia […]

The structures appear in SMILES notation.

On to `COc1ccc(/C=C/C(=O)C(CC2CCC2)C(=O)/C=C/c2ccc(OC)c(OC)c2)cc1OC` [ASC-JM-17, reference compound], for which the “Ub-G76V-GFP reporter assay, mean” value in series [1] (U2OS cells, Fig. S3) came to 4.073. The “Ub-G76V-GFP degradation (ubiquitin-proteasome system function)” value in series [1] (U2OS, 5 μM, 8 h, versus DMSO) is “impaired proteasomal degradation”.
On to `COc1ccc(/C=C2\CNC/C(=C\c3ccc(OC)c(OC)c3)C2=O)cc1OC` [RUN-84], for which the “Tox [% of ctrl.]” value with HEK293 cells is 73% of ctrl. Moreover, the “NFE2L1 reporter activation in the presence of NAC” value in the series with NFE2L1 pathway [2] is “reduction in activation”. Also, the fold induction at 5 µM with NFE2L1 pathway [3] came out at 4.
As for `CC(C)C[C@H](NC(=O)[C@H](Cc1ccccc1)NC(=O)c1cnccn1)B(O)O` [BTZ, bortezomib, reference compound], the “Mean log2-transformed reporter fold change, HCT116 KO 04” value in series [4] (DDI2-/- clone KO 04, 0.5 μM BTZ or 5 μM RUN-89, 16 h, DMSO = 0) came out at 0.1712. In addition, the “Mean log2-transformed reporter fold change, HCT116 KO 11” value in series [4] (DDI2-/- clone KO 11, 0.5 μM BTZ or 5 μM RUN-89, 16 h, DMSO = 0) was found to be 0.1696. For the same compound, the “Reporter activity in DDI2-deficient cells” value in series [4] (DDI2 knockout HCT116, in contrast to wild-type cells) is on record as “neither the proteasome inhibitor bortezomib nor RUN-89 induced reporter activity”. Moreover, the “Mean log2-transformed reporter fold change, HCT116 WT” value in series [4] (WT (DDI2+/+), 0.5 μM BTZ or 5 μM RUN-89, 16 h, DMSO = 0) was 1.529.
